Assay results as given in ChEMBL document CHEMBL1149358, “Synthesis and dipeptidyl peptidase inhibition of N-(4-substituted-2,4-diaminobutanoyl)piperidines” (Bioorg Med Chem Lett, 2006).

Legend:
[1] = molecular target: Dipeptidyl peptidase 4 (Homo sapiens, UniProt P27487); assay: Inhibition of DPP4
[2] = molecular target: Dipeptidyl peptidase 8 (Homo sapiens, UniProt Q6V1X1); assay: Inhibition of DPP8
[3] = molecular target: T1, Dipeptidyl peptidase 2 (Homo sapiens, UniProt Q9UHL4); assay: Inhibition of DPP2
[4] = species on record: Homo sapiens; assay: Selectivity for DPP2 over DPP8
[5] = molecular target: T1, Dipeptidyl peptidase 2; assay: Inhibition of DPP II

Sequence of Dipeptidyl peptidase 8 (Q6V1X1 whole entry): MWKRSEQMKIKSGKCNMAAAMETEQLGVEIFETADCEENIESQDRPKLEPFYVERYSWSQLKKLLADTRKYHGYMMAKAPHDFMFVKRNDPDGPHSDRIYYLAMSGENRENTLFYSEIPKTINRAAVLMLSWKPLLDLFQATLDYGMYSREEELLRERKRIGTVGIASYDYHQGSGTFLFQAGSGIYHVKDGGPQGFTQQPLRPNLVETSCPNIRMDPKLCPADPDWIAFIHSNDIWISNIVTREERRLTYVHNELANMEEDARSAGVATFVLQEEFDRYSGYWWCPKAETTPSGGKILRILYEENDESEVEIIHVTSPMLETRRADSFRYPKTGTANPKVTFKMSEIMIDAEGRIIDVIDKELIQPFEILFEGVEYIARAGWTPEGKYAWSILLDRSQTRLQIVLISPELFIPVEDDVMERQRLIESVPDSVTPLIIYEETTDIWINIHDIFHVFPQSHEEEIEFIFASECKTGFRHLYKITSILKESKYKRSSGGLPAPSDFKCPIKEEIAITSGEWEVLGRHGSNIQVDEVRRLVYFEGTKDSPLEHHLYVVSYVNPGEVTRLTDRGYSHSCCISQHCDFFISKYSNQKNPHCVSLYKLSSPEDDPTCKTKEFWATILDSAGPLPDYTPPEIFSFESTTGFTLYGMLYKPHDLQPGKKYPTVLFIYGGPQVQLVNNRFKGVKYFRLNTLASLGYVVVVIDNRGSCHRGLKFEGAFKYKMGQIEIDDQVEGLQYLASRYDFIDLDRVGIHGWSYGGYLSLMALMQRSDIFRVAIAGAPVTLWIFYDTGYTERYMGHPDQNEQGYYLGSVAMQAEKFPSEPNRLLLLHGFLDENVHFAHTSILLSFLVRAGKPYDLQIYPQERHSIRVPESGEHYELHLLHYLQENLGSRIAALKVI
Sequence of Dipeptidyl peptidase 4 (P27487 whole entry): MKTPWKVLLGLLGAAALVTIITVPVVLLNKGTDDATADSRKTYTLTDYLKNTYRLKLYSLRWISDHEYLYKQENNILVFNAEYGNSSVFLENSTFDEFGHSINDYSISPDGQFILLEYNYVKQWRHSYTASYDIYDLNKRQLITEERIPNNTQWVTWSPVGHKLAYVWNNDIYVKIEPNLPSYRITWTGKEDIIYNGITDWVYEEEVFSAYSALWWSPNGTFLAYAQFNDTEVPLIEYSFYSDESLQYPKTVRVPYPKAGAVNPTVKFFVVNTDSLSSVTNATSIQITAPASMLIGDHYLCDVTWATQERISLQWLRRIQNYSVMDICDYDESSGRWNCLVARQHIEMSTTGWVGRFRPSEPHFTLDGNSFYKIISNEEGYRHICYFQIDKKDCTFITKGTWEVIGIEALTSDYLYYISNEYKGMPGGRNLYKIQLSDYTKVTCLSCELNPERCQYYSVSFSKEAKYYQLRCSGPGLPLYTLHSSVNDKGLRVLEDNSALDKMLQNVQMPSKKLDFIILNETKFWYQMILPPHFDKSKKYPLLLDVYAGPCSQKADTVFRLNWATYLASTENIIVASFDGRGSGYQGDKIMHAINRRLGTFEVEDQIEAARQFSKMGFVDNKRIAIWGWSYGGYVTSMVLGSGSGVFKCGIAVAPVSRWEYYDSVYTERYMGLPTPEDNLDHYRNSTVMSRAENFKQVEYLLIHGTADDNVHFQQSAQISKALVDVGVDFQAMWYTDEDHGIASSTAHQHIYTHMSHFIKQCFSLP

Compound | IC50 [1] [µM] | IC50 [2] [µM] | IC50 [3] [µM] | Selectivity index [4] | Ki [5] [nM]
N[C@@H](C[C@@H](Cc1ccccc1)NCc1ccc(Cl)cc1)C(=O)N1CCCCC1 | > 125 | > 500 | – | – | –
N[C@@H](C[C@H](Cc1ccccc1)NCc1ccc(Cl)cc1)C(=O)N1CCCCC1 | > 125 | > 100 | – | – | –
N[C@@H](CCNCc1ccc(Cl)cc1)C(=O)N1CCCCC1 | 196 | 142 | 0.00022 | > 10000 | 0.082
CC(C)[C@@H](C[C@H](N)C(=O)N1CCCCC1)NCc1ccc(Cl)cc1 | > 125 | > 100 | – | – | –

The next lines start with the values.

IC50 [1] [µM] | IC50 [2] [µM] | IC50 [3] [µM] | Selectivity index [4] | Ki [5] [nM] | Compound
325 | – | – | – | – | C[C@@H](C[C@H](N)C(=O)N1CCCCC1)NCc1ccc(Cl)cc1
> 100 | > 100 | – | – | – | CC[C@@H](C[C@H](N)C(=O)N1CCCCC1)NCc1ccc(Cl)cc1
234 | > 100 | – | – | – | CCC(C)[C@@H](C[C@H](N)C(=O)N1CCCCC1)NCc1ccc(Cl)cc1 (some centres not stated)
> 250 | – | – | – | – | C[C@H](C[C@H](N)C(=O)N1CCCCC1)NCc1ccc(Cl)cc1
